test system: HEK293-STF3A cells; assay: STF3A assay (luciferase reporter); assay type: cell-based; settings: Homo sapiens, 24 h, 1 day of treatment
Procedure: HEK293-STF cell line was modified from Human embryonic kidney cell line HEK293 transfected with the STF reporter. HEK293-STF3A cell line was further modified from HEK293-STF cell line to express Wnt3A. This cell line was used to identify compounds that regulate either early or late signalling components of the Wnt pathway. L-Wnt3A (ATCC, #CRL-2647) cell line was used for providing Wnt3A conditioned media. The three cell lines were grown in DMEM (Dulbecco's Modified Eagle Medium) with 10% FBS (fetal bovine serum) incubated in 37° C. with 5% CO2. 2×10^4 HEK293-STF3A cells in 75 μl culture media were seeded in each well of white 96 well plates (Greiner #655098) and incubated overnight at 37° C. 25 μl serially diluted compound was added to the cells to give final concentration of 50 μM to 1.5 nM. After 1 day of treatment, 100 μl of Steady-Glo® Luciferase Assay reagent (#E2520, Promega) was added to each well and incubated for 10 minutes at room temperature. Luminescence was measured using Tecan Safire2® plate reader.

SMILES | IC50 [µM]
Cn1c(=O)c2c(ncn2CCCC(=O)Nc2ccc(-c3ccsc3)cc2)n(C)c1=O [Compound 88, 4-(1,3-dimethyl-2,6-dioxo-1,2,3,6-tetrahydro-7H-purin-7-yl)-N-(4-(thiophen-3-yl)phenyl)butanamide] | < 0.1
CN(C)c1nc2c(c(=O)n(C)c(=O)n2C)n1CC(=O)Nc1ccc(-c2ccsc2)cc1 [Compound 73, 2-(8-(dimethylamino)-1,3-dimethyl-2,6-dioxo-2,3-dihydro-1H-purin-7(6H)-yl)-N-(4-(thiophen-3-yl)phenyl)acetamide] | < 0.1
Cn1c(=O)c2c(nc(N3CCOCC3)n2CC(=O)Nc2ccc(-c3ccsc3)cc2)n(C)c1=O [Compound 74, 2-(1,3-dimethyl-8-morpholino-2,6-dioxo-2,3-dihydro-1H-purin-7(6H)-yl)-N-(4-(thiophen-3-yl)phenyl)acetamide] | < 1
Cn1c(=O)c2c(ncn2CCCC(=O)Nc2ccc(-c3nccs3)cc2)n(C)c1=O [Compound 94, 4-(1,3-dimethyl-2,6-dioxo-1,2,3,6-tetrahydro-7H-purin-7-yl)-N-(4-(thiazol-2-yl)phenyl)butanamide] | < 1
CC(C(=O)Nc1ccc(N2CCN(Cc3cc(F)cc(F)c3)CC2)cc1)n1cnc2c1c(=O)n(C)c(=O)n2C (stereo not shown) [Compound 63, N-(4-(4-(3,5-difluorobenzyl)piperazin-1-yl)phenyl)-2-(1,3-dimethyl-2,6-dioxo-2,3-dihydro-1H-purin-7(6H)-yl)propanamide] | < 1
Cn1c(=O)c2c(ncn2CC(=O)Nc2ccc(-c3ccncc3)cc2)n(C)c1=O [Compound 10, 2-(1,3-dimethyl-2,6-dioxo-2,3-dihydro-1H-purin-7(6H)-yl)-N-(4-(pyridin-4-yl)phenyl)acetamide] | < 1
Cn1c(=O)c2c(ncn2CC(=O)Nc2ccc(N3CCN(C(=O)c4cccs4)CC3)cn2)n(C)c1=O [Compound 50, 2-(1,3-dimethyl-2,6-dioxo-2,3-dihydro-1H-purin-7(6H)-yl)-N-(5-(4-(thiophene-2-carbonyl)piperazin-1-yl)pyridin-2-yl)acetamide] | < 1
CC(C(=O)Nc1ccc(-c2nccs2)cc1)n1cnc2c1c(=O)n(C)c(=O)n2C (stereo not shown) [Compound 81, 2-(1,3-dimethyl-2,6-dioxo-2,3-dihydro-1H-purin-7(6H)-yl)-N-(4-(thiazol-2-yl)phenyl)propanamide] | < 0.1
CC(C(=O)Nc1ccc(N2CCN(C(=O)OC(C)(C)C)CC2)cc1)n1cnc2c1c(=O)n(C)c(=O)n2C (stereo not shown) [Compound 23, tert-butyl 4-(4-(2-(1,3-dimethyl-2,6-dioxo-2,3-dihydro-1H-purin-7(6H)-yl)propanamido)phenyl)piperazine-1-carboxylate] | < 0.1
C[C@H](C(=O)Nc1ccc(-c2ccccc2)nn1)n1cnc2c1c(=O)n(C)c(=O)n2C [Compound 80, (R)-2-(1,3-dimethyl-2,6-dioxo-2,3-dihydro-1H-purin-7(6H)-yl)-N-(6-phenylpyridazin-3-yl)propanamide] | > 10
COc1cccc(-c2ccc(NC(=O)Cn3cnc4c3c(=O)n(C)c(=O)n4C)cc2)c1 [Compound 32, 2-(1,3-dimethyl-2,6-dioxo-2,3-dihydro-1H-purin-7(6H)-yl)-N-(3′-methoxybiphenyl-4-yl)acetamide] | < 0.1
CN(C(=O)Cn1cnc2c1c(=O)n(C)c(=O)n2C)c1ccc(-c2ccsc2)cc1 [Compound 17, 2-(1,3-dimethyl-2,6-dioxo-2,3-dihydro-1H-purin-7(6H)-yl)-N-methyl-N-(4-(thiophen-3-yl)phenyl)acetamide] | > 10
Cn1c(=O)c2c(ncn2CC(=O)Nc2ccc(-c3ccccc3)nc2)n(C)c1=O [Compound 35, 2-(1,3-dimethyl-2,6-dioxo-2,3-dihydro-1H-purin-7(6H)-yl)-N-(6-phenylpyridin-3-yl)acetamide] | < 0.1
Cc1cccc(-c2ccc(NC(=O)Cn3cnc4c3c(=O)n(C)c(=O)n4C)cc2)c1 [Compound 29, 2-(1,3-dimethyl-2,6-dioxo-2,3-dihydro-1H-purin-7(6H)-yl)-N-(3′-methylbiphenyl-4-yl)acetamide] | < 0.1
Cn1c(=O)c2c(ncn2CC(=O)Nc2ccc(N3CCN(C(=O)CC(C)(C)C)CC3)cn2)n(C)c1=O [Compound 47, 2-(1,3-dimethyl-2,6-dioxo-2,3-dihydro-1H-purin-7(6H)-yl)-N-(5-(4-(3,3-dimethylbutanoyl)piperazin-1-yl)pyridin-2-yl)acetamide] | < 1
CCn1c(=O)c2c(ncn2CC(=O)Nc2ccc(-c3ccsc3)cc2)n(CC)c1=O [Compound 72, 2-(1,3-diethyl-2,6-dioxo-2,3-dihydro-1H-purin-7(6H)-yl)-N-(4-(thiophen-3-yl)phenyl)acetamide] | < 0.1
Cn1c(=O)c2c(ncn2CC(=O)Nc2cnc(-c3ccccc3)cn2)n(C)c1=O [Compound 36, 2-(1,3-dimethyl-2,6-dioxo-2,3-dihydro-1H-purin-7(6H)-yl)-N-(5-phenylpyrazin-2-yl)acetamide] | < 0.1
Cn1c(=O)c2c(ncn2CC(=O)Nc2ccc(N3CCN(C(=O)c4ccc(F)cc4)CC3)cn2)n(C)c1=O [Compound 52, 2-(1,3-dimethyl-2,6-dioxo-2,3-dihydro-1H-purin-7(6H)-yl)-N-(5-(4-(4-fluorobenzoyl)piperazin-1-yl)pyridin-2-yl)acetamide] | < 1
C[C@H]1CN(C(=O)c2ccccc2)CCN1c1ccc(NC(=O)Cn2cnc3c2c(=O)n(C)c(=O)n3C)cc1 [Compound 46, (S)—N-(4-(4-benzoyl-2-methylpiperazin-1-yl)phenyl)-2-(1,3-dimethyl-2,6-dioxo-2,3-dihydro-1H-purin-7(6H)-yl)acetamide] | < 1
Cn1c(=O)c2c(ncn2CC(=O)Nc2ccc(-c3ccncc3)nn2)n(C)c1=O [Compound 12, 2-(1,3-dimethyl-2,6-dioxo-2,3-dihydro-1H-purin-7(6H)-yl)-N-(6-(pyridin-4-yl)pyridazin-3-yl)acetamide] | < 5
CC(C(=O)Nc1ccc(-c2ccccc2)cc1)n1cnc2c1c(=O)n(C)c(=O)n2C (stereo not shown) [Compound 62, N-(biphenyl-4-yl)-2-(1,3-dimethyl-2,6-dioxo-2,3-dihydro-1H-purin-7(6H)-yl)propanamide] | < 0.1
Cn1c(=O)c2c(ncn2CCCC(=O)Nc2ccc(-c3cccs3)cc2)n(C)c1=O [Compound 91, 4-(1,3-dimethyl-2,6-dioxo-1,2,3,6-tetrahydro-7H-purin-7-yl)-N-(4-(thiophen-2-yl)phenyl)butanamide] | < 0.1
Cn1c(=O)c2c(ncn2CC(=O)Nc2ccc(N3CCN(C(=O)c4cccc(F)c4)CC3)cn2)n(C)c1=O [Compound 51, 2-(1,3-dimethyl-2,6-dioxo-2,3-dihydro-1H-purin-7(6H)-yl)-N-(5-(4-(3-fluorobenzoyl)piperazin-1-yl)pyridin-2-yl)acetamide] | < 1
Cc1cc(-c2ccccc2)ccc1NC(=O)Cn1cnc2c1c(=O)n(C)c(=O)n2C [Compound 13, 2-(1,3-dimethyl-2,6-dioxo-2,3-dihydro-1H-purin-7(6H)-yl)-N-(3-methylbiphenyl-4-yl)acetamide] | > 10
Cn1c(=O)c2c(ncn2CC(=O)Nc2cc(-c3ccccc3)no2)n(C)c1=O [Compound 39, 2-(1,3-dimethyl-2,6-dioxo-2,3-dihydro-1H-purin-7(6H)-yl)-N-(3-phenylisoxazol-5-yl)acetamide] | > 10
